Experimental data: ChEMBL document CHEMBL1201862, “PubChem BioAssay data set” (2004)
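Test compounds were applied to cells in 96-well plates for 48 hours at 5 doses. The concentration for 50% growth inhibition is given as GI50.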 The source made the active and inactive calls. Rule as the data show it: active = GI50 up to about 1.1 µM and inactive = higher.

Key:
Assay in all cases: DTP human tumour cell line panel, 48 h
SF-539 = system: SF-539
HOP-92 = system: HOP-92
SNB-19 = system: SNB-19
OVCAR-5 = system: OVCAR-5
MDA-MB-231 = system: MDA-MB-231
NCI/ADR-RES = system: NCI/ADR-RES
SNB-75 = system: SNB-75
UACC-257 = system: UACC-257
SW-620 = system: SW-620
EKVX = system: EKVX
OVCAR-3 = system: OVCAR-3
U-251 = system: U-251
MDA-N = system: MDA-N
K562 = system: K562
RXF 393 = system: RXF 393
MDA-MB-435 = system: MDA-MB-435
SK-OV-3 = system: SK-OV-3
UO-31 = system: UO-31
HCC 2998 = system: HCC 2998

SMILES | GI50 (SF-539) | GI50 (HOP-92) | GI50 (SNB-19) | GI50 (OVCAR-5) | GI50 (MDA-MB-231) | GI50 (NCI/ADR-RES) | GI50 (SNB-75) | GI50 (UACC-257) | GI50 (SW-620) | GI50 (EKVX) | GI50 (OVCAR-3) | GI50 (U-251) | GI50 (MDA-N) | GI50 (K562) | GI50 (RXF 393) | GI50 (MDA-MB-435) | GI50 (SK-OV-3) | GI50 (UO-31) | GI50 (HCC 2998)
CC(=O)OC1(C)N=NC2(CCCCC2)O1 (stereo not drawn) | > 100 µM (inactive) | > 100 µM (inactive) | > 100 µM (inactive) | > 100 µM (inactive) | > 100 µM (inactive) | > 100 µM (inactive) | > 100 µM (inactive) | > 100 µM (inactive) | > 100 µM (inactive) | > 100 µM (inactive) | > 100 µM (inactive) | > 100 µM (inactive) | > 100 µM (inactive) | > 100 µM (inactive) | > 100 µM (inactive) | > 100 µM (inactive) | > 100 µM (inactive) |  | 
COc1ccc(C2SCC(=O)N2c2ccc(-n3c(-c4ccccc4)nc4ccccc4c3=O)cc2)cc1 (stereo not drawn) | > 100 µM (inactive) | 46.7 µM (inactive) | > 100 µM (inactive) | > 100 µM (inactive) | > 100 µM (inactive) | 8.89 µM (inactive) | 15.8 µM (inactive) | > 100 µM (inactive) | > 100 µM (inactive) | > 100 µM (inactive) | > 100 µM (inactive) | > 100 µM (inactive) |  | > 100 µM (inactive) |  | > 100 µM (inactive) | 73.3 µM (inactive) | 25.3 µM (inactive) | 60.3 µM (inactive)
CC(C)CC1c2[nH]c3ccccc3c2C[C@H]2C(=O)NC(CCCCNC(=O)OC(C)(C)C)C(=O)N12 (stereo partly drawn) |  | 31 µM (inactive) | 47.1 µM (inactive) | 61.5 µM (inactive) | 17 µM (inactive) | 33.4 µM (inactive) |  | 44.8 µM (inactive) | 41 µM (inactive) | 51.9 µM (inactive) | 2.36 µM (inactive) | 24.7 µM (inactive) | 37.5 µM (inactive) | 32 µM (inactive) | 6.62 µM (inactive) | 33 µM (inactive) |  | 38.1 µM (inactive) | 
CC1=NN(c2nc(N)nc(COCc3nc(N)nc(N4N=C(C)CC4(C)C)n3)n2)C(C)(C)C1 | > 100 µM (inactive) | > 100 µM (inactive) | > 100 µM (inactive) | > 100 µM (inactive) | > 100 µM (inactive) | > 100 µM (inactive) | > 100 µM (inactive) | > 100 µM (inactive) | > 100 µM (inactive) | > 100 µM (inactive) | > 100 µM (inactive) | > 100 µM (inactive) |  | > 100 µM (inactive) | > 100 µM (inactive) | > 100 µM (inactive) | > 100 µM (inactive) | > 100 µM (inactive) | > 100 µM (inactive)
COc1ccc(CC(C)NCC(O)c2ccc(O)c(NC=O)c2)cc1 (stereo not drawn) | > 100 µM (inactive) |  | > 100 µM (inactive) | > 100 µM (inactive) | < 0.01 µM (active) | > 100 µM (inactive) | > 100 µM (inactive) | > 100 µM (inactive) | > 100 µM (inactive) | > 100 µM (inactive) | > 100 µM (inactive) | > 100 µM (inactive) |  | > 100 µM (inactive) | > 100 µM (inactive) | > 100 µM (inactive) | > 100 µM (inactive) | > 100 µM (inactive) | 
O=C(NNc1ccccc1)/C(=C/c1ccc2c(c1)OCO2)NC(=O)c1ccccc1 | > 100 µM (inactive) | > 100 µM (inactive) | > 100 µM (inactive) | > 100 µM (inactive) |  |  | > 100 µM (inactive) | > 100 µM (inactive) |  | > 100 µM (inactive) | 69 µM (inactive) | 98.4 µM (inactive) |  | > 100 µM (inactive) | > 100 µM (inactive) |  | > 100 µM (inactive) | > 100 µM (inactive) | > 100 µM (inactive)
Oc1nnc(-c2ccc(F)cc2)cc1-c1ccccc1 | 35.9 µM (inactive) | > 100 µM (inactive) | 44.8 µM (inactive) | > 100 µM (inactive) | > 100 µM (inactive) | > 100 µM (inactive) |  | > 100 µM (inactive) | > 100 µM (inactive) | 42.9 µM (inactive) | 23.4 µM (inactive) | 35.8 µM (inactive) |  | > 100 µM (inactive) | 46.1 µM (inactive) | > 100 µM (inactive) | 42.6 µM (inactive) |  | 78.5 µM (inactive)
O=C(O)c1ccc(-c2nc3cc(Cl)ccc3[nH]2)cc1 | > 100 µM (inactive) | > 100 µM (inactive) | > 100 µM (inactive) |  | > 100 µM (inactive) | > 100 µM (inactive) | > 100 µM (inactive) |  | > 100 µM (inactive) | > 100 µM (inactive) | > 100 µM (inactive) | > 100 µM (inactive) |  | > 100 µM (inactive) | > 100 µM (inactive) |  | > 100 µM (inactive) | > 100 µM (inactive) | > 100 µM (inactive)
